Measured values from ChEMBL document CHEMBL3352151, “In vitro and in vivo antibacterial evaluation and mechanistic study of ornithine based small cationic lipopeptides against antibiotic resistant clinical isolates” (Eur J Med Chem, 2014).
Values after ≈ are worked out from the molar mass of the structure shown. Active and inactive are the calls of the source. No cut-off for these calls is given here.

How the values were obtained:
[1] = tested on: Enterococcus faecalis; test: Antibacterial activity against clinical isolates of Enterococcus faecalis GMCH/B0091 after overnight incubation by microdilution broth assay; format: functional
[2] = Toxicity in albino mouse assessed as mortality at 15 mg/kg, iv; format: organism-based; set-up: dose 15 mg/kg, route intravenous; conditions: in vivo
[3] = tested on: Mus musculus; test: (§1) Toxicity in iv dosed albino mouse; format: organism-based; conditions: in vivo
[4] = as §1; format: organism-based; conditions: in vivo
[5] = tested on: Staphylococcus epidermidis; test: Antibacterial activity against clinical isolates of Staphylococcus epidermidis GMCH/B0057 after overnight incubation by microdilution broth assay; format: functional
[6] = tested on: Staphylococcus epidermidis; test: Antibacterial activity against clinical isolates of ampicillin-resistant Staphylococcus epidermidis GMCH/R-Amp008 after overnight incubation by microdilution broth assay; format: functional
[7] = tested on: Haemophilus influenzae; test: Antibacterial activity against clinical isolates of ciprofloxacin-resistant Haemophilus influenzae PGI/DML01744 after overnight incubation by microdilution broth assay; format: functional
[8] = tested on: Haemophilus influenzae; test: Antibacterial activity against clinical isolates of Haemophilus influenzae PGI/DML01751 after overnight incubation by microdilution broth assay; format: functional
[9] = Membrane permeabilization activity assessed as release of calcein from liposomes at 1:50 lipopeptide:lipid molar ratio after 5 mins by fluorescence assay
[10] = tested on: Staphylococcus aureus; test: Antibacterial activity against Staphylococcus aureus PGI/DML03149 infected in Swiss albino mouse assessed as log reduction at 10 mg/kg administered […] at 1 hr post infection relative to control; format: functional
[11] = Cytotoxicity against human HaCaT cells assessed as cell viability at 100 ug/ml after 18 hrs by MTT assay; format: cell-based; conditions: read-out: Activity
[12] = tested on: Mus musculus; test: Toxicity in albino mouse assessed as piloerection at 75 mg/kg, iv measured for 14 days; format: organism-based; set-up: dose 75 mg/kg, route intravenous; conditions: in vivo, 336 h
[13] = tested on: Escherichia coli; test: Antibacterial activity against clinical isolates of imipenem-resistant Escherichia coli PGI/DML02292 after overnight incubation by microdilution broth assay; format: functional
[14] = Cytotoxicity against human HaCaT cells assessed as cell viability at 500 ug/ml after 18 hrs by MTT assay; format: cell-based; conditions: read-out: Activity
[15] = tested on: Mus musculus; test: Toxicity in albino mouse assessed as mortality latency at 120 mg/kg, iv; format: organism-based; set-up: dose 120 mg/kg, route intravenous; conditions: in vivo
[16] = tested on: Escherichia coli; test: Antibacterial activity against Escherichia coli PGI/DML02292 infected in Swiss albino mouse assessed as log reduction at 10 mg/kg administered at 1 hr post infection relative to control; format: functional
[17] = tested on: Mus musculus; test: Toxicity in albino mouse assessed as death at 1 to 30 mg/kg, iv measured for 14 days; format: organism-based; set-up: dose 1-30 mg/kg, route intravenous; conditions: in vivo, 336 h
[18] = tested on: Escherichia coli; test: Antibacterial activity against Escherichia coli PGI/DML02292 infected in Swiss albino mouse assessed as log reduction at 3 mg/kg administered twice at 1 hr and 5 hrs post infection relative to control; format: functional
[19] = tested on: Streptococcus pneumoniae; test: Antibacterial activity against clinical isolates of Streptococcus pneumoniae PGI/DML02468 after overnight incubation by microdilution broth assay; format: functional
[20] = tested on: Staphylococcus aureus; test: Antibacterial activity against clinical isolates of methicillin-resistant Staphylococcus aureus PGI/DML03149 after overnight incubation by microdilution broth assay; format: functional
[21] = tested on: Mus musculus; test: Toxicity in albino mouse assessed as mortality latency at 75 mg/kg, iv; format: organism-based; set-up: dose 75 mg/kg, route intravenous; conditions: in vivo
[22] = Membrane permeabilization activity assessed as release of calcein from liposomes at 1:10 lipopeptide:lipid molar ratio after 5 mins by fluorescence assay
[23] = tested on: Escherichia coli; test: Antibacterial activity against Escherichia coli PGI/DML02292 infected in Swiss albino mouse assessed as log reduction at 5 mg/kg administered at 1 hr post infection relative to control; format: functional
[24] = tested on: Plasma; test: Drug degradation in human plasma at 1 ug/ml after 24 hrs by RP-HPLC analysis; format: ADME, cell-free
[25] = tested on: Mus musculus; test: Toxicity in albino mouse assessed as mortality latency at 45 mg/kg, iv; format: organism-based; set-up: dose 45 mg/kg, route intravenous; conditions: in vivo
[26] = tested on: Mus musculus; test: Toxicity in albino mouse assessed as syncope at 90 to 150 mg/kg, iv measured for 14 days; format: organism-based; set-up: dose 90-150 mg/kg, route intravenous; conditions: in vivo, 336 h
[27] = tested on: Pseudomonas aeruginosa; test: Antibacterial activity against clinical isolates of Pseudomonas aeruginosa PGI/DML02084 after overnight incubation by microdilution broth assay; format: functional
[28] = tested on: Mus musculus; test: Toxicity in albino mouse assessed as mortality latency at 150 mg/kg, iv; format: organism-based; set-up: dose 150 mg/kg, route intravenous; conditions: in vivo
[29] = Membrane permeabilization activity assessed as release of calcein from liposomes after 5 mins by fluorescence assay
[30] = tested on: Staphylococcus aureus; test: Antibacterial activity against Staphylococcus aureus PGI/DML03149 infected in Swiss albino mouse assessed as log reduction at 5 mg/kg administered […] at 1 hr post infection relative to control; format: functional
[31] = tested on: Mus musculus; test: Toxicity in albino mouse assessed as mortality latency at 90 mg/kg, iv; format: organism-based; set-up: dose 90 mg/kg, route intravenous; conditions: in vivo
[32] = tested on: Pseudomonas aeruginosa; test: Antibacterial activity against clinical isolates of streptomycin-resistant Pseudomonas aeruginosa PGI/DML01991 after overnight incubation by microdilution broth assay; format: functional
[33] = tested on: Escherichia coli; test: Induction of membrane damage in Escherichia coli PGI/DML02292 at 3 ug/ml after 30 mins by propidium iodide staining-based flow cytometry relative to control; format: functional
[34] = Toxicity in albino mouse assessed as mortality at 5 mg/kg, iv; format: organism-based; set-up: dose 5 mg/kg, route intravenous; conditions: in vivo
[35] = tested on: Escherichia coli; test: Induction of membrane damage in Escherichia coli PGI/DML02292 at 9 ug/ml after 30 mins by propidium iodide staining-based flow cytometry relative to control; format: functional
[36] = tested on: Escherichia coli; test: Bactericidal activity against clinical isolates of Escherichia coli PGI/DML02292 assessed as surface blebs at 4 times MIC after 30 mins by […] microscopy relative to control; format: functional, organism-based
[37] = tested on: Mus musculus; test: Toxicity in albino mouse assessed as hypoactivity at 45 to 75 mg/kg, iv measured for 14 days; format: organism-based; set-up: dose 45-75 mg/kg, route intravenous; conditions: in vivo, 336 h
[38] = tested on: Acinetobacter baumannii; test: Antibacterial activity against clinical isolates of Acinetobacter baumannii GMCH/B0083 after overnight incubation by microdilution broth assay; format: functional
[39] = Toxicity in albino mouse assessed as mortality at 1 mg/kg, iv; format: organism-based; set-up: dose 1 mg/kg, route intravenous; conditions: in vivo
[40] = tested on: Staphylococcus aureus; test: Antibacterial activity against Staphylococcus aureus PGI/DML03149 infected in Swiss albino mouse assessed as log reduction at 1 mg/kg administered twice at 1 hr and 5 hrs post infection relative to control; format: functional
[41] = tested on: Escherichia coli; test: Binding affinity to Escherichia coli PGI/DML02292 DNA at 12 ug/ml after 1 hr by agarose gel electrophoresis
[42] = Toxicity in albino mouse assessed as mortality at 120 mg/kg, iv; format: organism-based; set-up: dose 120 mg/kg, route intravenous; conditions: in vivo
[43] = tested on: Escherichia coli; test: Antibacterial activity against clinical isolates of Escherichia coli PGI/DML02250 after overnight incubation by microdilution broth assay; format: functional
[44] = Toxicity in albino mouse assessed as mortality at 75 mg/kg, iv; format: organism-based; set-up: dose 75 mg/kg, route intravenous; conditions: in vivo
[45] = tested on: Escherichia coli; test: Antibacterial activity against Escherichia coli PGI/DML02292 infected in Swiss albino mouse assessed as log reduction at 1 mg/kg administered twice at 1 hr and 5 hrs post infection relative to control; format: functional
[46] = tested on: Mus musculus; test: Toxicity in albino mouse assessed as anorexia at 45 to 150 mg/kg, iv measured for 14 days; format: organism-based; set-up: dose 45-150 mg/kg, route intravenous; conditions: in vivo, 336 h
[47] = tested on: Enterococcus faecium; test: Antibacterial activity against clinical isolates of Enterococcus faecium GMCH/B0102 after overnight incubation by microdilution broth assay; format: functional

For `CCCCCCCCCCCCCC(=O)NC(CCCN)C(=O)NC(CCCN)C(=O)NC(CCCN)C(N)=O` (stereo not given), the MIC [1] was 1.5 µg/mL (≈ 2.63 µM), the mortality [2] was 0% and the LOAEL [3] was 45 mg/kg. The MLD [3] was 45 mg/kg, the LD50 [4] was 81.3 mg/kg and the MTD [4] was 30 mg/kg. It also gave an NOAEL [4] of 30 mg/kg, an MIC [5] of 3.5 µg/mL (≈ 6.14 µM) and an MIC [6] of 3.1 µg/mL (≈ 5.44 µM). The MIC [7] was 3.1 µg/mL (≈ 5.44 µM), the MIC [8] was 4.5 µg/mL (≈ 7.9 µM) and the Activity [9] was 51%. For the same compound, the FC [10] was 4.59, the viability at 18 h, 100 ug/ml [11] was 92% and the Activity [12] was “Toxic”. The MIC [13] was 5.5 µg/mL (≈ 9.65 µM), the viability at 18 h, 500 ug/ml [14] was 25% and the Time [15] was greater than 48 h. For the same compound, the FC [16] was 5.41, the Activity [17] was “Non-toxic” and the FC [18] was 3.83. For the same compound, the MIC [19] was 4.5 µg/mL (≈ 7.9 µM), the MIC [20] was 3.1 µg/mL (≈ 5.44 µM) and the Time [21] was greater than 120 h. For the same compound, the Activity [22] was 91%, the FC [23] was 3.68 and the Stability [24] was “Stable”. For the same compound, the Time [25] was greater than 168 h, the Activity [26] was “Toxic” and the MIC [27] was 1.5 µg/mL (≈ 2.63 µM). The Time [28] was greater than 48 h, the Activity [29] was “Dose-dependent effect” and the FC [30] was 3.07. It also gave a Time [31] greater than 96 h, an MIC [32] of 2.25 µg/mL (≈ 3.95 µM) and an Activity [33] of 14%. For the same compound, the mortality [34] was 0%, the Activity [35] was 79% and the Activity [36] was “Active”. For the same compound, the Activity [37] was “Toxic”, the MIC [38] was 2.5 µg/mL (≈ 4.39 µM) and the mortality [39] was 0%. The FC [40] was 0.84, the Activity [41] was “inactive” and the mortality [42] was 75%. The MIC [43] was 2 µg/mL (≈ 3.51 µM), the mortality [44] was 40% and the FC [45] was 1.08. For the same compound, the Activity [46] was “Toxic” and the MIC [47] was 3.5 µg/mL (≈ 6.14 µM).
